# Assays:
# Type in all cases: physicochemical, human
# [1] = LC/MS of blood plasma sample: time from blood collection to centrifugation (Table D); conditions: blood collection to centrifugation
# Summary of the method: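 Detection intensities are expressed relative to samples centrifuged 15 min after collection (=1), measured by electrospray LC/MS in MRM mode (Discovery HS F5-3, 40 °C, formic acid water/acetonitrile gradient at 0.25 mL/min). EDTA blood from a healthy donor was held at 4 °C, centrifuged at 4 °C, 3000 rpm, 15 min, and plasma frozen.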
# [2] = LC/MS of blood plasma sample: time from blood collection to cooling of blood (Table E); set-up: key to Rate of increase or decrease / Rate of increase or decrease (first value, increase): detection intensity relative to ≤1 min to cooling = 1
# [3] = LC/MS of serum sample: time from blood collection to centrifugation (Table J)
# Summary of the method: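 Detection intensities are expressed relative to 1 for samples centrifuged 15 min after blood collection; centrifugation was at room temperature, 3500 rpm, 5 min. Frozen serum was run by electrospray LC-MS in MRM mode, with 0.1% formic acid water/acetonitrile at 0.25 mL/min on a 40 °C F5 column.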
# [4] = LC/MS of serum sample: number of times of freezing and thawing (Table M); set-up: key to Rate of increase or decrease: detection intensity relative to 1 at 2 freeze-thaw cycles
# Summary of the method: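 Values are detection intensities relative to serum thawed twice, versus 4, 6 or 10 freeze-thaw cycles. Serum came from blood spun at room temperature, 3500 rpm for 5 minutes. Analysis: electrospray LC/MS in MRM mode, Discovery HS F5-3 column, 40° C, 0.1% formic acid in water and acetonitrile.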
# [5] = LC/MS of blood plasma sample: number of times of freezing and thawing (Table F)
# Summary of the method: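 Values are detection intensities normalised to 1 for plasma thawed twice, compared against 4, 6 and 10 freeze-thaw cycles. Measured by electrospray LC/MS in MRM mode, formic acid water/acetonitrile mobile phase, column at 40° C. Plasma came from EDTA blood, cooled to 4° C and spun at 3000 rpm for 15 min.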
# [6] = LC/MS of serum sample: time from centrifugation to isolation (Table K); set-up: key to Rate of increase or decrease: detection intensity relative to the 30-minute value set as 1
# Summary of the method: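 Serum left at room temperature 30 min, 1 h or 6 h between centrifugation (3500 rpm, 5 min, room temperature) and isolation, then frozen and analysed by LC/MS (Discovery HS F5-3 column, 40° C., 0.1% formic acid water/acetonitrile, electrospray, MRM). Values are detection intensity relative to the 30-min condition set to 1.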
# [7] = GC/MS of serum sample: time from blood collection to centrifugation (Table G); conditions: blood collection to centrifugation
# Summary of the method: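 Values express detection intensity as a ratio to the sample centrifuged 15 minutes after blood collection (taken as 1). Serum was derivatized by methoxymation and trimethylsilylation, then analysed by electron-ionization GC/MS using multiple reaction monitoring on a BPX5 column ramped from 60 to 330° C.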
# [8] = GC/MS of serum sample: number of times of freezing and thawing (Table I); set-up: key to Rate of increase or decrease / Rate of increase or decrease (first value, increase): detection intensity relative to 2 freeze-thaw cycles = 1; conditions: serum, GC/MS
# Summary of the method: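 Detection intensities are ratios to the value after two freeze–thaw cycles, which is set as 1, compared against 4, 6 and 10 cycles. Analysis used methoxymation and trimethylsilylation derivatization, then GC/MS with EI ionization and multiple reaction monitoring on a BPX5 column. Serum came from blood held at room temperature and spun at 3500 rpm for 5 min.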
# [9] = GC/MS of serum sample: time from centrifugation to isolation (Table H); set-up: key to Rate of increase or decrease / Rate of increase or decrease (first value, increase): detection intensity relative to 1 at 30 min centrifugation-to-isolation
# Summary of the method: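 Values are GC/MS (EI, MRM) detection intensities of methoxymated/trimethylsilylated serum, normalised to 1 for the 30-min sample. Serum was isolated 30 min, 1 h or 6 h after room-temperature centrifugation (3500 rpm, 5 min) of blood.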
# [10] = detection intensity relative to 1 at 15 minutes, after 4 hours
# [11] = detection intensity, after 4 hours vs 15 minutes
# [12] = detection intensity relative to 1 at 2 times, freezing and thawing 4 times
# [13] = detection intensity, freezing and thawing 4 times vs 2 times
structure (smiles),measurement,setting,value
Nc1ncnc2c1ncn2[C@@H]1O[C@H](CO)[C@@H](O)[C@H]1O [Adenosine],Rate of increase or decrease,[1]; [10],1.39
same,Increase or decrease,[1]; [11],Increase
same,Rate of increase or decrease,"[2]; detection intensity relative to 1 at 1 minute or less, blood collection to cooling 5 minutes",1.52
same,Increase or decrease,"[2]; detection intensity, blood collection to cooling 5 minutes or more vs 1 minute or less",Increase
same,Rate of increase or decrease,"[3]; after 4 hours from blood collection to centrifugation, detection intensity relative to 1 at 15 minutes",0.29
same,Increase or decrease,"[3]; serum sample, LC/MS, detection intensity vs 15 minutes from blood collection to centrifugation",Decrease
same,Time when compound is affected,"[3]; serum sample, LC/MS, time from blood collection to centrifugation, detection intensity changed by 30% or more vs 15 minutes",After 4 hours
same,Rate of increase or decrease,"[4]; 4 times of freezing and thawing, detection intensity relative to 1 at 2 times",0.54
same,Number of times when compound is affected,"[4]; serum sample, LC/MS, detection intensity changed by 30% or more vs 2 times of freezing and thawing",4 times
same,Increase or decrease,"[4]; serum sample, LC/MS, detection intensity vs 2 times of freezing and thawing",Decrease
same,Rate of increase or decrease,[5]; [12],0.58
same,Increase or decrease,[5]; [13],Decrease
same,Rate of increase or decrease,"[6]; after 1 hour from centrifugation to isolation, detection intensity relative to 1 at 30 minutes",0.07
same,Increase or decrease,"[6]; serum sample, LC/MS, detection intensity vs 30 minutes from centrifugation to isolation",Decrease
same,Time when compound is affected,"[6]; serum sample, LC/MS, time from centrifugation to isolation, detection intensity changed by 30% or more vs 30 minutes",After 1 hour hours
same,Rate of increase or decrease,[7]; [10],0.17
same,Increase or decrease,[7]; [11],Decrease
same,Rate of increase or decrease,[8]; [12],0.36
same,Increase or decrease,[8]; [13],Decrease
same,Rate of increase or decrease,"[9]; detection intensity relative to 1 at 30 minutes, after 1 hour",3.11
same,Increase or decrease,"[9]; detection intensity, after 1 hour vs 30 minutes",Increase
